Test results taken from patent US7125858B2, “Hyaluronic acid in the treatment of cancer” (Bioniche Life Sciences Inc., priority 1999, dated 2006).

Key:
[1] = system: MCF-7 human breast cancer cells; assay: MTT cell proliferation, MCF-7; format: cell-based
Experimental: (§1) Cell proliferation was measured using dimethylthiazoldiphenyltetrazolium (MTT) reduction (Mosman et al. J. Immunol. Methods 65:55, 1983). Unless otherwise stated, 100 μl of 5 mg of MTT (Sigma-Aldrich, St. Louis, Mo., USA) dissolved in 1 ml of PBS was added into each well. After 4 h, medium was removed from each well, 1.0 ml of acid-isopropanol (0.04 N HCl in isopropanol) was added and reduced MTT was solubilized by mixing. Absorbency of the reaction product was measured at a wavelength of 570 nm using a multiplate spectrophotometer reader (Elx800 Model, Bio-TEK Instruments Inc., Winooski, Vt., USA).
(§2) Unless stated otherwise 1.0×10^5 cells/ml were seeded in 6-well flat-bottom tissue culture plates and were maintained for 48 h at 37° C. in a 5% CO2 atmosphere.
(§3) PC-3, LNCAP and Du-145 human prostate cancer cells; MCF-7 human breast cancer cells; HT-1080 human fibrosarcoma cancer cells; B16F1 murine melanoma cells; and, UMUC-3, RT-4, HT-1376 and T-24 human bladder cancer cells were incubated with 0.8, 8.0 and 80 μg/ml of 5.0–7.5×10^5 Da HA (Table 2).
(§4) Unless stated otherwise 2.0×10^4 cells/ml were seeded in 24-well plates and were maintained for 48 h at 37° C. in a 5% CO2 atmosphere. MTT was used at 50 μl per well.
(§5) T-24 human bladder cancer cells, PC-3 and Du-145 human prostate cancer cells, and MCF-7 human breast cancer cell were incubated with saline or with 80.0 μg/ml of 5.0–7.5×10^5 Da HA+1.0 μg/ml of M-DNA (Table 4).
MCF-7 human breast cancer cells (2.5×10^5 cells/ml) were incubated as in Example 6 with 0.0, 0.01 and 0.1 μg/ml of 5.0–7.5×10^5 Da HA+100 μg/ml of the synthetic 6 base oligonucleotide GG(GT)1GG (SEQ ID NO:1) or +100 μg/ml of the […] 27 base oligonucleotide (GT)13G (SEQ ID NO:2) (Table 6). MTT was used at 50 μl per well.
(§6) RT-4 human bladder cancer cells and MCF-7 human breast cancer cells were incubated as in Example 6 with 0.0, 0.008 or 0.08 μg/ml of 5.0–7.5×10^5 Da HA+0.1 μg/ml of CIS, +1.0 μg/ml of 5-FU or +10 μg/ml of 5-FU (Table 7).
(§7) CD44 expression and the inhibition of proliferation by 5.0–7.5×10^5 Da HA were measured using Jurkat T cell leukemia cells; MCF-7 human breast cancer cells; RT-4, T-24, HT-1376 and UMUC-3 human bladder cancer cells; and, PC-3, Du-145 and LNCaP prostate cancer cells (Table 8)

[2] = system: RT-4 human bladder cancer cells; assay: MTT cell proliferation, RT-4; format: cell-based
Experimental: as §1, §2, §3, §4
(§8) HT-1376, RT-4 and T-24 human bladder cancer cells were incubated with 0.8 μg/ml of 5.0–7.5×10^5 Da HA+1.0 μg/ml of MCC (Table 5).
as §6, §7

IL-12 = IL-12 production by PBMCs (ELISA); format: cell-based, human
Experimental: (§9) Peripheral blood mononuclear cells (hereinafter, “PBMCs”) were isolated from the blood of 5 healthy humans by Ficoll-Hypaque (Amersham Pharmacia Biotech, Baie d'Urfée, Québec, Canada) density gradient centrifugation of whole blood. Stimulation of IL-6 and IL-12 production by the immune system cells was determined using the appropriate commercial ELISA (BioSource, Camarillo, Calif., USA). Results are expressed as the “fold” (x) increases in cytokine production by treated cells compared to control cells. PBMCs were incubated with 1 mg/ml of 5.0–7.5×10^5 Da and production of IL-6 and IL-12 was determined (Table 9). PBMCs, isolated from the blood of individual #1, were incubated with 0.008, 0.04, 0.2 and 1 mg/ml of 5.0–7.5×10^5 Da (Table 10)

IL-6 = IL-6 production by PBMCs (ELISA); format: cell-based, human
Experimental: as §9

[3] = system: B16F1 murine melanoma cells; assay: MTT cell proliferation, B16F1; format: cell-based; details: 1.0×10^5 cells/ml, 48 h
Experimental: as §1, §2, §3

[4] = system: Du-145 human prostate cancer cells; assay: MTT cell proliferation, Du-145; format: cell-based; details: 48 h
Experimental: as §1, §2, §3
(§10) PC-3. LNCaP and Du-145 human prostate cancer cells were incubated with 8.0 μg/ml of 5.0–7.5×10^5 Da HA or of <1.5×10^4 Da HA (Table 3).
as §4, §5, §7

[5] = system: T-24 human bladder cancer cells; assay: MTT cell proliferation, T-24; format: cell-based; details: 48 h
Experimental: as §1, §2, §3, §4, §5, §8, §7

[6] = system: LNCaP human prostate cancer cells; assay: MTT cell proliferation, LNCaP; format: cell-based; details: 1.0×10^5 cells/ml, 48 h
Experimental: as §1, §2, §3, §10, §7

[7] = system: Jurkat T cell leukemia cells; assay: MTT cell proliferation, Jurkat T; format: cell-based; details: HA 80 μg/ml alone
Experimental: as §1, §7

[8] = system: HT-1376 human bladder cancer cells; assay: MTT cell proliferation, HT-1376; format: cell-based; details: 48 h
Experimental: as §1, §2, §3, §4, §8, §7

[9] = system: UMUC-3 human bladder cancer cells; assay: MTT cell proliferation, UMUC-3; format: cell-based; details: 1.0×10^5 cells/ml, 48 h
Experimental: as §1, §2, §3, §7

[10] = system: PC-3 human prostate cancer cells; assay: MTT cell proliferation, PC-3; format: cell-based; details: 48 h
Experimental: as §1, §2, §3, §10, §4, §5, §7

[11] = system: HT-1080 human fibrosarcoma cancer cells; assay: MTT cell proliferation, HT-1080; format: cell-based; details: 1.0×10^5 cells/ml, 48 h
Experimental: as §1, §2, §3

[12] = system: B16F10 murine melanoma tumor; details: HA 1 mg/ml over 7 days by Alzet osmotic pump into the immediate vicinity of the tumor; cited from earlier work
[13] = system: rectal, gastric, breast, prostate and endometrial cancers; details: HA >750 mg/kg administered with various other therapeutic agents over various periods of time (PCT/CA/00283); cited from earlier work
colon-26 cancer cells = details: HA alone; colon-26 cells express high levels of HA receptors (Freemantle et al. 1995); cited from earlier work
[14] = MCF-7 2.5×10^5 cells/ml, oligonucleotide 100 μg/ml alone (HA 0.0 μg/ml)
[15] = PBMCs of individual 1, HA 1 mg/ml
[16] = PBMCs of individual 2, HA 1 mg/ml
[17] = PBMCs of individual 3, HA 1 mg/ml
[18] = PBMCs of individual 4, HA 1 mg/ml
[19] = PBMCs of individual 5, HA 1 mg/ml
[20] = PBMCs of individual #1, HA 0.008 mg/ml
[21] = PBMCs of individual #1, HA 0.040 mg/ml
[22] = PBMCs of individual #1, HA 0.200 mg/ml
[23] = HA 0.8 μg/ml alone, 1.0×10^5 cells/ml
[24] = HA 8.0 μg/ml alone, 1.0×10^5 cells/ml, listed as 0.5–7.5 × 10^5 Da HA
[25] = HA 80.0 μg/ml alone (+ saline), 2.0×10^4 cells/ml, 24-well
[26] = HA 80.0 μg/ml alone, 1.0×10^5 cells/ml
[27] = HA 8.0 μg/ml alone, 1.0×10^5 cells/ml
[28] = HA at 0.8 μg/ml alone (+ saline), 2.0×10^4 cells/ml, 24-well

(GT)13G (DNA GTGTGTGTGTGTGTGTGTGTGTGTGTG; listed as DNA, chemistry not given here) [(G1T)13G, synthetic 27 base oligonucleotide]
% inhibition of cell proliferation [1, 14]: 44%

GG(GT)1GG
% inhibition of cell proliferation [1, 14]: 20%

Hyaluronic acid [5.0–7.5 × 10^5 Da HA]
% inhibition of cell proliferation ([2]; HA 0.008 μg/ml alone (+ saline), as in Example 6): 0% | % inhibition of cell proliferation ([2]; HA 0.08 μg/ml alone (+ saline), as in Example 6): 0% | % inhibition of cell proliferation ([2]; HA 0.8 μg/ml alone, 1.0×10^5 cells/ml, 48 h): 12% | % inhibition of cell proliferation ([2]; HA 8.0 μg/ml alone, 1.0×10^5 cells/ml, 48 h): 13% | % inhibition of cell proliferation ([2]; HA 80.0 μg/ml alone, 1.0×10^5 cells/ml, 48 h): 5% | % inhibition of cell proliferation ([2]; HA at 0.8 μg/ml alone (+ saline), 2.0×10^4 cells/ml, 24-well, 48 h): 13% | IL-12 production, fold increase vs control cells (IL-12; [15]): 25.2x | IL-12 production, fold increase vs control cells (IL-12; [16]): 7.1x | IL-12 production, fold increase vs control cells (IL-12; [17]): 26.5x | IL-12 production, fold increase vs control cells (IL-12; [18]): 10.0x | IL-12 production, fold increase vs control cells (IL-12; [19]): 8.5x | IL-12 production, fold increase vs control cells (IL-12; [20]): 4.9x | IL-12 production, fold increase vs control cells (IL-12; [21]): 13.8x | IL-12 production, fold increase vs control cells (IL-12; [22]): 8.5x | IL-6 production, fold increase vs control cells (IL-6; [15]): 3.8x | IL-6 production, fold increase vs control cells (IL-6; [16]): 1.8x | IL-6 production, fold increase vs control cells (IL-6; [17]): 4.1x | IL-6 production, fold increase vs control cells (IL-6; [18]): 1.4x | IL-6 production, fold increase vs control cells (IL-6; [19]): 6.3x | IL-6 production, fold increase vs control cells (IL-6; [20]): 2.4x | IL-6 production, fold increase vs control cells (IL-6; [21]): 3.5x | IL-6 production, fold increase vs control cells (IL-6; [22]): 2.9x | % inhibition of cell proliferation ([1]; MCF-7 2.5×10^5 cells/ml, HA 0.01 μg/ml alone, no oligonucleotide): 6% | % inhibition of cell proliferation ([1]; MCF-7 2.5×10^5 cells/ml, HA 0.1 μg/ml alone, no oligonucleotide): 5% | % inhibition of cell proliferation ([1]; MCF-7, HA 0.008 μg/ml alone (+ saline), as in Example 6): 12% | % inhibition of cell proliferation ([1]; MCF-7, HA 0.08 μg/ml alone (+ saline), as in Example 6): 12% | % inhibition of cell proliferation ([1]; MCF-7, HA 0.8 μg/ml alone, 1.0×10^5 cells/ml, 48 h): 19% | % inhibition of cell proliferation ([1]; MCF-7, HA 8.0 μg/ml alone, 1.0×10^5 cells/ml, 48 h): 24% | % inhibition of cell proliferation ([1]; MCF-7, HA 80.0 μg/ml alone (+ saline), 2.0×10^4 cells/ml, 24-well, 48 h): 35% | % inhibition of cell proliferation ([1]; MCF-7, HA 80.0 μg/ml alone, 1.0×10^5 cells/ml, 48 h): 35% | % inhibition of cell proliferation ([3]; HA 0.8 μg/ml alone): 20% | % inhibition of cell proliferation ([3]; HA 8.0 μg/ml alone): 20% | % inhibition of cell proliferation ([3]; HA 80.0 μg/ml alone): 30% | % inhibition of cell proliferation [4, 23]: 6% | % inhibition of cell proliferation [4, 24]: 15% | % inhibition of cell proliferation [4, 25]: 38% | % inhibition of cell proliferation [4, 26]: 38% | % inhibition of cell proliferation [5, 23]: 10% | % inhibition of cell proliferation [5, 27]: 8% | % inhibition of cell proliferation [5, 25]: 0% | % inhibition of cell proliferation [5, 26]: 0% | % inhibition of cell proliferation [5, 28]: 8% | % inhibition of cell proliferation ([6]; HA 0.8 μg/ml alone): 7% | % inhibition of cell proliferation ([6]; HA 8.0 μg/ml alone, listed as 0.5–7.5 × 10^5 Da HA): 13% | % inhibition of proliferation [7]: 0% | % inhibition of cell proliferation [8, 23]: 0% | % inhibition of cell proliferation [8, 27]: 3% | % inhibition of cell proliferation [8, 26]: 1% | % inhibition of cell proliferation [8, 28]: 3% | % inhibition of cell proliferation ([9]; HA 0.8 μg/ml alone): 10% | % inhibition of cell proliferation ([9]; HA 8.0 μg/ml alone): 10% | % inhibition of cell proliferation ([9]; HA 80.0 μg/ml alone): 2% | % inhibition of cell proliferation [10, 23]: 15% | % inhibition of cell proliferation [10, 24]: 26% | % inhibition of cell proliferation [10, 25]: 30% | % inhibition of cell proliferation ([11]; HA 0.8 μg/ml alone): 4% | % inhibition of cell proliferation ([11]; HA 8.0 μg/ml alone): 4% | % inhibition of cell proliferation ([11]; HA 80.0 μg/ml alone): 36%

Hyaluronic acid [<1.5 × 10^4 Da HA]
% inhibition of cell proliferation [4, 27]: 37% | % inhibition of cell proliferation ([6]; HA 8.0 μg/ml alone): 24% | % inhibition of cell proliferation [10, 27]: 5%

Hyaluronic acid [HA]
reduction of tumor volume [12]: > 85% | effect on cancers [13]: reduced or eliminated | % inhibition of cell proliferation ([6]; HA 80.0 μg/ml alone): 26% | % inhibition of cell proliferation [10, 26]: 30% | growth of cancer cells (colon-26 cancer cells): significantly inhibits
